Experimental data published in PubChem BioAssay (NCI).
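Growth conditions: 96-well plates. Treatment: test compound, 48 hours, 5 concentrations. Analysis: linear interpolation between bracketing concentrations; unreached endpoints set to highest concentration. At the TGI there is no net growth.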

The molecules below were run on 786-0 renal (assay: growth of human tumour cells (NCI), 48 h).
With `O=C(O)/C(=C/c1ccccc1)c1ccccc1` the TGI was > 100 µM.
With `COc1ccc2nccc(/C=C/c3ccc(N(C)C)cc3)c2c1` the TGI was > 10 µM.
With `CC(CN(C)C)C(C#N)(c1ccccc1)c1ccccc1` (stereo not drawn) the TGI was > 100 µM.
For `COC(=O)C1=C(OC(=O)/C(=C/c2ccccc2)c2ccc([N+](=O)[O-])cc2)C(C(=O)OC)[C@@]2(O)[C@@H](C(=O)OC)[C@H](C)C[C@@H]1[C@@H]2C(=O)OC` (stereo partly drawn), the TGI was > 100 µM.

Each molecule was assayed on A498 renal (assay: growth of human tumour cells (NCI), 48 h).
With `O=C(O)/C(=C/c1ccccc1)c1ccccc1` the TGI was > 100 µM.
For `CCOC(=O)C1CSCCSC1`, the TGI was > 100 µM.
`COc1ccc2nccc(/C=C/c3ccc(N(C)C)cc3)c2c1` was tested, and the TGI was > 10 µM.
In the case of `CC(CN(C)C)C(C#N)(c1ccccc1)c1ccccc1` (stereo not drawn), the TGI is reported as > 100 µM.
In the case of `COC(=O)C1=C(OC(=O)/C(=C/c2ccccc2)c2ccc([N+](=O)[O-])cc2)C(C(=O)OC)[C@@]2(O)[C@@H](C(=O)OC)[C@H](C)C[C@@H]1[C@@H]2C(=O)OC` (stereo partly drawn), the TGI is reported as > 100 µM.

These molecules were tested on A549 NSCLC (assay: growth of human tumour cells (NCI), 48 h).
`O=C(O)/C(=C/c1ccccc1)c1ccccc1` was tested, and the TGI was > 100 µM.
For `CCOC(=O)C1CSCCSC1`, the TGI was > 100 µM.
For `COc1ccc2nccc(/C=C/c3ccc(N(C)C)cc3)c2c1`, the TGI was > 10 µM.
With `CC(CN(C)C)C(C#N)(c1ccccc1)c1ccccc1` (stereo not drawn) the TGI was > 100 µM.
In the case of `COC(=O)C1=C(OC(=O)/C(=C/c2ccccc2)c2ccc([N+](=O)[O-])cc2)C(C(=O)OC)[C@@]2(O)[C@@H](C(=O)OC)[C@H](C)C[C@@H]1[C@@H]2C(=O)OC` (stereo partly drawn), the TGI is reported as > 100 µM.

What follows are molecules tested on ACHN renal (assay: growth of human tumour cells (NCI), 48 h).
In the case of `O=C(O)/C(=C/c1ccccc1)c1ccccc1`, the TGI is reported as > 100 µM.
`CCOC(=O)C1CSCCSC1` was tested, and the TGI was > 100 µM.
`COc1ccc2nccc(/C=C/c3ccc(N(C)C)cc3)c2c1` was tested, and the TGI was > 10 µM.
With `CC(CN(C)C)C(C#N)(c1ccccc1)c1ccccc1` (stereo not drawn) the TGI was > 100 µM.
With `COC(=O)C1=C(OC(=O)/C(=C/c2ccccc2)c2ccc([N+](=O)[O-])cc2)C(C(=O)OC)[C@@]2(O)[C@@H](C(=O)OC)[C@H](C)C[C@@H]1[C@@H]2C(=O)OC` (stereo partly drawn) the TGI was > 100 µM.

These molecules were tested on BT-549 breast (assay: growth of human tumour cells (NCI), 48 h).
`O=C(O)/C(=C/c1ccccc1)c1ccccc1` was tested, and the TGI was > 100 µM.
`COc1ccc2nccc(/C=C/c3ccc(N(C)C)cc3)c2c1` was tested, and the TGI was > 10 µM.
`CC(CN(C)C)C(C#N)(c1ccccc1)c1ccccc1` (stereo not drawn) was tested, and the TGI was > 100 µM.
For `COC(=O)C1=C(OC(=O)/C(=C/c2ccccc2)c2ccc([N+](=O)[O-])cc2)C(C(=O)OC)[C@@]2(O)[C@@H](C(=O)OC)[C@H](C)C[C@@H]1[C@@H]2C(=O)OC` (stereo partly drawn), the TGI was > 100 µM.

Each molecule was assayed on CAKI-1 renal (assay: growth of human tumour cells (NCI), 48 h).
With `O=C(O)/C(=C/c1ccccc1)c1ccccc1` the TGI was > 100 µM.
`COc1ccc2nccc(/C=C/c3ccc(N(C)C)cc3)c2c1` was tested, and the TGI was > 10 µM.
With `CC(CN(C)C)C(C#N)(c1ccccc1)c1ccccc1` (stereo not drawn) the TGI was > 100 µM.
In the case of `COC(=O)C1=C(OC(=O)/C(=C/c2ccccc2)c2ccc([N+](=O)[O-])cc2)C(C(=O)OC)[C@@]2(O)[C@@H](C(=O)OC)[C@H](C)C[C@@H]1[C@@H]2C(=O)OC` (stereo partly drawn), the TGI is reported as > 100 µM.

The molecules below were run on CCRF-CEM leukemia (assay: growth of human tumour cells (NCI), 48 h).
`O=C(O)/C(=C/c1ccccc1)c1ccccc1` was tested, and the TGI was > 100 µM.
`CCOC(=O)C1CSCCSC1` was tested, and the TGI was > 100 µM.
With `COc1ccc2nccc(/C=C/c3ccc(N(C)C)cc3)c2c1` the TGI was > 10 µM.
In the case of `CC(CN(C)C)C(C#N)(c1ccccc1)c1ccccc1` (stereo not drawn), the TGI is reported as > 100 µM.
With `COC(=O)C1=C(OC(=O)/C(=C/c2ccccc2)c2ccc([N+](=O)[O-])cc2)C(C(=O)OC)[C@@]2(O)[C@@H](C(=O)OC)[C@H](C)C[C@@H]1[C@@H]2C(=O)OC` (stereo partly drawn) the TGI was > 100 µM.

What follows are molecules tested on COLO 205 colon (assay: growth of human tumour cells (NCI), 48 h).
With `CCOC(=O)C1CSCCSC1` the TGI was > 100 µM.
With `COc1ccc2nccc(/C=C/c3ccc(N(C)C)cc3)c2c1` the TGI was > 10 µM.
`CC(CN(C)C)C(C#N)(c1ccccc1)c1ccccc1` (stereo not drawn) was tested, and the TGI was > 100 µM.
`COC(=O)C1=C(OC(=O)/C(=C/c2ccccc2)c2ccc([N+](=O)[O-])cc2)C(C(=O)OC)[C@@]2(O)[C@@H](C(=O)OC)[C@H](C)C[C@@H]1[C@@H]2C(=O)OC` (stereo partly drawn) was tested, and the TGI was > 100 µM.

These molecules were tested on DU-145 prostate (assay: growth of human tumour cells (NCI), 48 h).
For `O=C(O)/C(=C/c1ccccc1)c1ccccc1`, the TGI was > 100 µM.
With `CCOC(=O)C1CSCCSC1` the TGI was > 100 µM.
`COc1ccc2nccc(/C=C/c3ccc(N(C)C)cc3)c2c1` was tested, and the TGI was > 10 µM.
For `CC(CN(C)C)C(C#N)(c1ccccc1)c1ccccc1` (stereo not drawn), the TGI was > 100 µM.
For `COC(=O)C1=C(OC(=O)/C(=C/c2ccccc2)c2ccc([N+](=O)[O-])cc2)C(C(=O)OC)[C@@]2(O)[C@@H](C(=O)OC)[C@H](C)C[C@@H]1[C@@H]2C(=O)OC` (stereo partly drawn), the TGI was > 100 µM.

The molecules below were run on EKVX NSCLC (assay: growth of human tumour cells (NCI), 48 h).
In the case of `O=C(O)/C(=C/c1ccccc1)c1ccccc1`, the TGI is reported as > 100 µM.
`COc1ccc2nccc(/C=C/c3ccc(N(C)C)cc3)c2c1` was tested, and the TGI was > 10 µM.
With `CC(CN(C)C)C(C#N)(c1ccccc1)c1ccccc1` (stereo not drawn) the TGI was > 100 µM.
With `COC(=O)C1=C(OC(=O)/C(=C/c2ccccc2)c2ccc([N+](=O)[O-])cc2)C(C(=O)OC)[C@@]2(O)[C@@H](C(=O)OC)[C@H](C)C[C@@H]1[C@@H]2C(=O)OC` (stereo partly drawn) the TGI was > 100 µM.

These molecules were tested on HCC-2998 colon (assay: growth of human tumour cells (NCI), 48 h).
For `O=C(O)/C(=C/c1ccccc1)c1ccccc1`, the TGI was > 100 µM.
With `CCOC(=O)C1CSCCSC1` the TGI was > 100 µM.
In the case of `COc1ccc2nccc(/C=C/c3ccc(N(C)C)cc3)c2c1`, the TGI is reported as > 10 µM.
`CC(CN(C)C)C(C#N)(c1ccccc1)c1ccccc1` (stereo not drawn) was tested, and the TGI was > 100 µM.
With `COC(=O)C1=C(OC(=O)/C(=C/c2ccccc2)c2ccc([N+](=O)[O-])cc2)C(C(=O)OC)[C@@]2(O)[C@@H](C(=O)OC)[C@H](C)C[C@@H]1[C@@H]2C(=O)OC` (stereo partly drawn) the TGI was > 100 µM.

What follows are molecules tested on HCT-116 colon (assay: growth of human tumour cells (NCI), 48 h).
In the case of `O=C(O)/C(=C/c1ccccc1)c1ccccc1`, the TGI is reported as > 100 µM.
For `CCOC(=O)C1CSCCSC1`, the TGI was > 100 µM.
With `COc1ccc2nccc(/C=C/c3ccc(N(C)C)cc3)c2c1` the TGI was > 10 µM.
In the case of `CC(CN(C)C)C(C#N)(c1ccccc1)c1ccccc1` (stereo not drawn), the TGI is reported as > 100 µM.
`COC(=O)C1=C(OC(=O)/C(=C/c2ccccc2)c2ccc([N+](=O)[O-])cc2)C(C(=O)OC)[C@@]2(O)[C@@H](C(=O)OC)[C@H](C)C[C@@H]1[C@@H]2C(=O)OC` (stereo partly drawn) was tested, and the TGI was > 100 µM.

These molecules were tested on HCT-15 colon (assay: growth of human tumour cells (NCI), 48 h).
For `O=C(O)/C(=C/c1ccccc1)c1ccccc1`, the TGI was > 100 µM.
In the case of `CCOC(=O)C1CSCCSC1`, the TGI is reported as > 100 µM.
For `COc1ccc2nccc(/C=C/c3ccc(N(C)C)cc3)c2c1`, the TGI was > 10 µM.
`CC(CN(C)C)C(C#N)(c1ccccc1)c1ccccc1` (stereo not drawn) was tested, and the TGI was > 100 µM.
`COC(=O)C1=C(OC(=O)/C(=C/c2ccccc2)c2ccc([N+](=O)[O-])cc2)C(C(=O)OC)[C@@]2(O)[C@@H](C(=O)OC)[C@H](C)C[C@@H]1[C@@H]2C(=O)OC` (stereo partly drawn) was tested, and the TGI was > 100 µM.

These molecules were tested on HL-60(TB) leukemia (assay: growth of human tumour cells (NCI), 48 h).
With `O=C(O)/C(=C/c1ccccc1)c1ccccc1` the TGI was > 100 µM.
For `COc1ccc2nccc(/C=C/c3ccc(N(C)C)cc3)c2c1`, the TGI was > 10 µM.
`CC(CN(C)C)C(C#N)(c1ccccc1)c1ccccc1` (stereo not drawn) was tested, and the TGI was > 100 µM.
For `COC(=O)C1=C(OC(=O)/C(=C/c2ccccc2)c2ccc([N+](=O)[O-])cc2)C(C(=O)OC)[C@@]2(O)[C@@H](C(=O)OC)[C@H](C)C[C@@H]1[C@@H]2C(=O)OC` (stereo partly drawn), the TGI was > 100 µM.

These molecules were tested on HOP-62 NSCLC (assay: growth of human tumour cells (NCI), 48 h).
In the case of `O=C(O)/C(=C/c1ccccc1)c1ccccc1`, the TGI is reported as > 100 µM.
`COc1ccc2nccc(/C=C/c3ccc(N(C)C)cc3)c2c1` was tested, and the TGI was > 10 µM.
For `CC(CN(C)C)C(C#N)(c1ccccc1)c1ccccc1` (stereo not drawn), the TGI was > 100 µM.
For `COC(=O)C1=C(OC(=O)/C(=C/c2ccccc2)c2ccc([N+](=O)[O-])cc2)C(C(=O)OC)[C@@]2(O)[C@@H](C(=O)OC)[C@H](C)C[C@@H]1[C@@H]2C(=O)OC` (stereo partly drawn), the TGI was > 100 µM.
